Experimental data as given in US8609413B2, “Neurons, astrocytes and oligodendrocytes differentiated from a mammalian pluripotent or neural stem cells exposed to a pyridine deriviative” (Research Development Foundation, priority 2007, dated 2013).
“Also recorded” adds a separate entry of the source.

Assays:
H1 human ES cells = experiment: Neuronal differentiation of human ES cells, differentiation protocol 2 (clinical grade protocol); assay type: cell-based
Procedure: Undifferentiated human H1 ES cells were cultured on irradiated mouse embryonic fibroblasts (MEF). To carry out neuronal differentiation, ES cells were mechanically dissociated into small aggregates (50-300 cells) and cultured in suspension on low-attachment six-well plates. For the first 4 days, the cells were cultured in neuronal induction medium (DMEM F-12 (Gibco), N2 supplement (Gibco), penicillin and streptomycin (Gibco), phenazopyridine 3:M). Then the medium was changed to simple neuronal proliferation medium (DMEM F-12, N2 supplement, 20 ng/ml human recombinant bFGF, penicillin and streptomycin, phenazopyridine 3:M) for 2 additional days. Subsequently, 15-20 6-day old cell aggregates were plated on polyornithine/laminin-coated six-well plates and maintained in simple neuronal proliferation medium for 7 days. Cells were then mechanically dissociated and replated in N2 medium (DMEM high glucose (Gibco), 10 ng/ml human recombinant bFGF (Gibco), N2 supplement (Gibco), penicillin and streptomycin (Gibco)) at a density of 20,000 cells per cm^2 on polyornithine/laminin-coated six-well plate. Cells were passaged when they reached 80-90% confluency, and were maintained in the same culture conditions for 2 additional weeks. Stock phenazopyridine (Microsource Discovery Inc.) was prepared by diluting phenazopyridine powder in DMSO (Sigma-Aldrich) at a concentration of 6 mM. The stock solution was diluted at 1:2000 in cell culture media to obtain a final concentration of 3:M Each of the components of the neuronal induction medium, the simple neuronal proliferation medium and the N2 medium can be replaced with clinical grade equivalents. Therefore, the foregoing procedure of carrying out neuronal differentiation is referred to herein as the “clinical grade protocol.”
The effects of phenazopyridine on ES cell differentiation were investigated using the clinical grade-compatible protocol. The first step involved generation of spheres of cells grown in suspension for 6 days, followed by replating on polyornithine/laminin coated plastic. One week later, cells were passaged at 2×10^4 cells/cm^2 on polyornithine/laminin coated plastic, and during the following two weeks cells were passaged when they reached 80-90% confluency. Cells were treated with either DMSO (1:2000) or with phenazopyridine (PAP) at 3:M with equivalent final DMSO concentration throughout the 4 week period.
Two different protocols were used to induce neuronal differentiation of human ES cells. In the first protocol, human ES cells were mechanically dissociated into small aggregates and plated on laminin/polyornithine coated six-well plates. Cells were cultured 2 weeks in human SR medium (DMEM F-12 supplemented with 15% knockout serum (Gibco), non-essential amino acids, penicillin and streptomycin), followed by 4 weeks in N2 medium. Compounds were added throughout these first 6 weeks. Subsequently, cells were mechanically dissociated and replated on polyornithine/laminin-coated 6 well plates. Throughout the text, this first differentiation protocol will be referred to as “differentiation protocol 1”. The second differentiation protocol was derived from previously described differentiation conditions (Nat et al., 2007). In the second differentiation protocol, undifferentiated human ES cells were mechanically dissociated into small aggregates and cultured in suspension on low-attachment six-well plates. For the first 4 days, they were cultured in neuronal induction medium (DMEM F-12, N2 supplement, penicillin and streptomycin), which was changed to simple neuronal proliferation medium (DMEM F-12, N2 supplement, 20 ng/ml bFGF, penicillin and streptomycin) for 2 additional days. Subsequently, aggregates were plated on polyornithine/laminin-coated six-well plates and maintained in simple neuronal proliferation medium for 7 days. Cells were then mechanically dissociated and replated in N2 medium at a density of 2×10^4 cells per cm^2 for two additional weeks.

[1] = tested on: human ES cell-derived neural precursors; experiment: Two step differentiation: precursors replated without compound in neuronal differentiation medium; assay type: cell-based
Text: To investigate the potential of neural precursors generated through phenazopyridine treatment, cells exposed to DMSO or phenazopyridine for four weeks as in Example 2 were replated at low density (5×10^3 cells/cm^2) on polyornithine/laminin coated support in neuronal differentiation medium, and investigated for their phenotype at different time points. Cells were then immunostained for neuronal markers and alkaline phosphatase (marking undifferentiated ES cells) after one week and four weeks of differentiation. Immunostaining was performed for nestin, β3-tubulin, Sox1, Pax6, vimentin, GFAP, CNPase, v-Glut1, GAD67, tyrosine hydroxylase and alkaline phosphatase. […] Two different protocols were used to induce neuronal differentiation of human ES cells. In the first protocol, human ES cells were mechanically dissociated into small aggregates and plated on laminin/polyornithine coated six-well plates. Cells were cultured 2 weeks in human SR medium (DMEM F-12 supplemented with 15% knockout serum (Gibco), non-essential amino acids, penicillin and streptomycin), followed by 4 weeks in N2 medium. Compounds were added throughout these first 6 weeks. Subsequently, cells were mechanically dissociated and replated on polyornithine/laminin-coated 6 well plates. Throughout the text, this first differentiation protocol will be referred to as “differentiation protocol 1”. The second differentiation protocol was derived from previously described differentiation conditions (Nat et al., 2007). In the second differentiation protocol, undifferentiated human ES cells were mechanically dissociated into small aggregates and cultured in suspension on low-attachment six-well plates. For the first 4 days, they were cultured in neuronal induction medium (DMEM F-12, N2 supplement, penicillin and streptomycin), which was changed to simple neuronal proliferation medium (DMEM F-12, N2 supplement, 20 ng/ml bFGF, penicillin and streptomycin) for 2 additional days. Subsequently, aggregates were plated on polyornithine/laminin-coated six-well plates and maintained in simple neuronal proliferation medium for 7 days. Cells were then mechanically dissociated and replated in N2 medium at a density of 2×10^4 cells per cm^2 for two additional weeks. Compounds were added throughout these first 4 weeks. Cells were then replated at a density of 5′000 cells per cm^2 in neuronal differentiation medium (Neurobasal medium, B-27 supplement, BDNF (10 ng/ml), penicillin and streptomycin). Throughout the text, this second differentiation protocol will be referred as to “differentiation protocol 2”. […] To investigate the potential of neuronal precursors generated through phenazopyridine treatment, the inventors devised a two step differentiation protocol. Cells were first treated with 3 μM phenazopyridine for 4 weeks and subsequently replated in the absence of phenazopyridine. For the second step, the inventors cultured cells at low density (5×10^3 cells/cm^2) on polyornithine/laminin-coated support in neuronal differentiation medium and investigated their phenotype at different time points in three independent experiments.

[2] = 3 μM, four weeks of differentiation

Nc1ccc(/N=N/c2ccccc2)c(N)n1 [phenazopyridine]
dissociation after mechanical passaging (H1 human ES cells; 3 μM vs DMSO): could easily be dissociated into single cells
percentage of living single cells by trypan blue exclusion (survival of dissociated cells) (H1 human ES cells; 3 μM vs DMSO, at passaging at different time points): promotes survival of dissociated cells
sphere morphology after one week of differentiation (H1 human ES cells; 3 μM vs DMSO, phase contrast): No apparent difference; also recorded: morphologically indistinct
sphere morphology at two weeks of differentiation (H1 human ES cells; 3 μM vs DMSO, phase contrast): developed into big areas of monolayer surrounding the plated spheres; also recorded: developed bigger areas of monolayer at their periphery
neuronal marker phenotype by immunostaining (H1 human ES cells; 3 μM, after four weeks of differentiation): Virtually all cells were nestin, Sox 1 and vimentin-positive, expressed β3-tubulin and Pax6 at low levels, and were negative for musashi
cells nestin-positive with low levels of β3-tubulin (early neuronal precursors) (H1 human ES cells; [2]): approximately 98%
non-neural cells (nestin and β3-tubulin negative) or differentiated neurons (β3-tubulin only) (H1 human ES cells; [2]): no non-neural cells or differentiated neurons were observed
mitotic figures and PCNA-positive cells in monolayer area (H1 human ES cells; 3 μM, two weeks, vs DMSO): many mitotic figures and PCNA-positive cells
phenotype 4 weeks after replating ([1]; 3 μM for 4 weeks, then 4 weeks without compound): formed networks of neurons, astrocytes and oligodendrocytes; also recorded: slow-growing cell clusters homogeneously positive for nestin, β3-tubulin, Sox1 and vimentin, together with more mature neurons, astrocytes and oligodendrocyte progenitors
subtypes of neurons ([1]; 3 μM for 4 weeks, then one week without compound): mainly glutamatergic, GABAergic and rarely dopaminergic neurons; also recorded: glutamatergic, GABAergic and—more rarely—TH-positive neurons
phenotype one week after replating ([1]; 3 μM for 4 weeks, then replated without compound): started to differentiate into neurons; also recorded: relatively homogenous monolayer of neural precursors and early neurons with short neurites
alkaline phosphatase-positive (undifferentiated ES) cells ([1]; after replating, vs control): never detected alkaline phosphatase-positive cells
astrocytes or oligodendrocyte precursors (GFAP, CNPase immunostaining) ([1]; one week after replating): did not observe the presence of astrocytes or oligodendrocytes precursors
